Experiment: in vitro
Conditions: male; for Measured concentration of analyte PEA, 0 min / Measured concentration of analyte PEA, 10 min / Measured concentration of analyte PEA, 20 min / Measured concentration of analyte PEA, 30 min / Measured concentration of analyte PEA, 60 min / % Remaining of Initial, 0 min / % Remaining of Initial, 10 min / % Remaining of Initial, 20 min / % Remaining of Initial, 30 min / % Remaining of Initial, 60 min / Concentration, analyte PEA / % Remaining of Initial (n = 1): 1 μM; for % Remaining of Initial, 0 min / % Remaining of Initial, 10 min / % Remaining of Initial, 20 min / % Remaining of Initial, 30 min / % Remaining of Initial, 60 min / microsomal CLint at 1 μM / half-life at 1 μM / % Remaining of Initial (n = 1): microsomes
Procedure: (§1) Reaction mixture, minus cofactors, was prepared as described below. Test article was added into the reaction mixture at a final concentration of 1 μM. […] An aliquot of the reaction mixture (without cofactor) was equilibrated in a shaking water bath at 37° C. for 3 minutes. The reaction was initiated by the addition of cofactor, and the mixture was incubated in a shaking water bath at 37° C. Aliquots (100 μL) were withdrawn at 0, 10, 20, 30, and 60 minutes. Test article samples were immediately combined with 300 μL of ice-cold acetonitrile containing 1% formic acid. Control samples were immediately combined with 400 μL of ice-cold 50/50 acetonitrile (ACN)/dH2O containing 0.1% formic acid and internal standard to terminate the reaction. Samples were then mixed and centrifuged to precipitate proteins. Calibration standards were prepared in matched matrix. Samples and standards were assayed by LC-MS/MS using electrospray ionization for both dosed prodrug and expected drug (PEA). Analytical conditions are outlined in Appendix 8-1. Test article concentration at each time point was compared to test article concentration at time 0 to determine the percent remaining at each time point. Half-lives were calculated using GraphPad software, fitting to a single-phase exponential decay equation.
Reaction mixture, minus cofactors, was prepared as described below. Test article was added into the reaction mixture at a final concentration of 1 μM. […] An aliquot of the reaction mixture (without cofactor) was equilibrated in a shaking water bath at 37° C. for 5 minutes. Reaction was initiated by the addition of cofactor, and the mixture was incubated in a shaking water bath at 37° C. Aliquots (100 μL) were withdrawn at 0, 10, 20, 30, and 60 minutes. Test article samples were immediately combined with 300 μL of ice-cold acetonitrile containing 1% formic acid. Control samples were immediately combined with 400 μL of ice-cold 50/50 acetonitrile (ACN)/dH2O containing 0.1% formic acid and internal standard to terminate the reaction. Samples were then mixed and centrifuged to precipitate proteins. Calibration standards were prepared in matched matrix. Samples and standards were assayed by LC-MS/MS using electrospray ionization for both the dosed prodrug and the expected drug (PEA). Analytical conditions are outlined in Appendix 10-1. Test article concentration at each time point was compared to the test article concentration at time 0 to determine the percent remaining at each time point. Half-lives were calculated using GraphPad software, fitting to a single-phase exponential decay equation.
as §1, with “minutes. Reaction” for “minutes. The reaction”, “300 μL,” for “300 μL”, “Appendix 13-1.” for “Appendix 8-1.”
Reaction mixture, minus cofactors, was prepared as described below.

Row | Structure (SMILES) | Measured concentration of analyte PEA, 0 min (Beagle, dog, 0 min) | Measured concentration of analyte PEA, 10 min (Beagle, dog, 10 min) | Measured concentration of analyte PEA, 20 min (Beagle, dog, 20 min) | Measured concentration of analyte PEA, 30 min (Beagle, dog, 30 min) | Measured concentration of analyte PEA, 60 min (Beagle, dog, 60 min) | % Remaining of Initial, 0 min (Beagle, dog, 0 h) | % Remaining of Initial, 10 min (Beagle, dog, 10 min) | % Remaining of Initial, 20 min (Beagle, dog, 20 min) | % Remaining of Initial, 30 min (Beagle, dog, 0.5 h) | % Remaining of Initial, 60 min (Beagle, dog, 1 h) | microsomal CLint at 1 μM (Beagle, dog) | half-life at 1 μM (Beagle, dog) | Measured concentration of analyte PEA, 0 min (CD-1, mouse, 0 min) | Measured concentration of analyte PEA, 10 min (CD-1, mouse, 10 min) | Measured concentration of analyte PEA, 20 min (CD-1, mouse, 20 min) | Measured concentration of analyte PEA, 30 min (CD-1, mouse, 30 min) | Measured concentration of analyte PEA, 60 min (CD-1, mouse, 60 min) | % Remaining of Initial, 0 min (CD-1, mouse, 0 h) | microsomal CLint at 1 μM (CD-1, mouse) | half-life at 1 μM (CD-1, mouse) | other results
1 | CCCCCCCCCCCCCCCC(=O)NCCOC(=O)CCC(=O)OCC(O)CO (stereo not drawn) [Compound I-9] | 0.39 µM | 0.42 µM | 0.32 µM | 0.26 µM | 0.18 µM | 100% | <1.0% | <1.0% | <1.0% | <1.0% | > 1380 µL/min/mg | < 1 min | 0.52 µM | 0.29 µM | 0.18 µM | 0.11 µM | 0.036 µM | 100% | > 1380 µL/min/mg | < 1 min | % Remaining of Initial, 10 min (CD-1, mouse, 10 min): <1.0%; % Remaining of Initial, 20 min (CD-1, mouse, 20 min): <1.0%; % Remaining of Initial, 30 min (CD-1, mouse, 0.5 h): <1.0%; % Remaining of Initial, 60 min (CD-1, mouse, 1 h): <1.0%
2 | CCCCCCCCCCCCCCCC(=O)NCCOC(=O)CCC(=O)OCC(COC(=O)CCC)OC(=O)CCC (stereo not drawn) [Compound I-11] | 0.032 µM | 0.32 µM | 0.26 µM | 0.20 µM | 0.097 µM | 100% | 3.6% | <1.0% | <1.0% | <1.0% | 665 µL/min/mg | 2.1 min | 0.22 µM | 0.32 µM | 0.18 µM | 0.12 µM | 0.030 µM | 100% | 687 µL/min/mg | 2 min | % Remaining of Initial, 10 min (CD-1, mouse, 10 min): 3.2%; % Remaining of Initial, 20 min (CD-1, mouse, 20 min): <1.0%; % Remaining of Initial, 30 min (CD-1, mouse, 0.5 h): <1.0%; % Remaining of Initial, 60 min (CD-1, mouse, 1 h): <1.0%
3 | CCCCC/C=C\C/C=C\CCCCCCCC(=O)OCC(COC(=O)CCC(=O)OCCNC(=O)CCCCCCCCCCCCCCC)OC(=O)CCCCCCC/C=C\C/C=C\CCCCC (stereo not drawn) [Compound I-13] |  |  |  |  |  |  |  |  |  |  | 36.2 µL/min/mg | 38 min |  |  |  |  |  |  | 29.1 µL/min/mg | 48 min | Concentration, analyte PEA (Beagle, dog, 0 min): 0 nM; Concentration, analyte PEA (Beagle, dog, 10 min): 0 nM; Concentration, analyte PEA (Beagle, dog, 20 min): 0 nM; Concentration, analyte PEA (Beagle, dog, 30 min): 0 nM; Concentration, analyte PEA (Beagle, dog, 60 min): 0 nM; % Remaining of Initial (n = 1) (Beagle, dog, 0 h): 100%; % Remaining of Initial (n = 1) (Beagle, dog, 10 min): 78%; % Remaining of Initial (n = 1) (Beagle, dog, 20 min): 76%; % Remaining of Initial (n = 1) (Beagle, dog, 0.5 h): 56%; % Remaining of Initial (n = 1) (Beagle, dog, 1 h): 32%; Concentration, analyte PEA (CD-1, mouse, 0 min): 0 nM; Concentration, analyte PEA (CD-1, mouse, 10 min): 0 nM; Concentration, analyte PEA (CD-1, mouse, 20 min): 0 nM; Concentration, analyte PEA (CD-1, mouse, 30 min): 0 nM; Concentration, analyte PEA (CD-1, mouse, 60 min): 0 nM; % Remaining of Initial (n = 1) (CD-1, mouse, 0 h): 100%; % Remaining of Initial (n = 1) (CD-1, mouse, 10 min): 69%; % Remaining of Initial (n = 1) (CD-1, mouse, 20 min): 75%; % Remaining of Initial (n = 1) (CD-1, mouse, 0.5 h): 54%; % Remaining of Initial (n = 1) (CD-1, mouse, 1 h): 44%
